# Results: patent US20120201868A1, “TREATMENT AND PREVENTION OF HIV INFECTION” (priority 2009, published 2012)
# Several values for one entry are separate records, joined by “and”; a condition that tells them apart may be missing. Identical values can stand only once. Like-named read-outs stand apart in the source and are kept apart here.
# Tests used:
# [1] = Plasma kinetics after intravenous injection of brecanavir solution in rats; type: in vivo; conditions: for clearance / AUC(0-t): rat, plasma, iv
# Experimental: FIG. 1: Individual plasma concentration (ng/ml) versus time profiles following intravenous dosing of a solution of brecanavir in rats at 2 mg/kg.
# Brecanavir was injected intraveneously as a 1 mg/ml solution (PEG400/saline 70:30) in rats (n=3) to determine the plasma kinetics of brecanavir in these animals. Plasma samples were collected from each of the rats at selected time points after administration; samples were analyzed for brecanavir concentrations with LC/MS. (See FIG. 1.)
# [2] = Plasma kinetics after single subcutaneous injection of brecanavir solution in rats; type: in vivo, Sprague-Dawley rats; conditions: for bioavailability: s.c. solution, read-out: average absolute bioavailability (F)
# Experimental: FIG. 2: Individual and mean plasma concentrations of brecanavir following single subcutaneous injection of a brecanavir solution to rats at 16 (Δ) and 56 mg/kg (∘).
# Sprague-Dawley rats (Crl:CD® (SD)IGS) of 200-300 g were injected once subcutaneously with an aqueous solution of brecanavir at 16 (n=4) and at 56 (n=4) mg/kg. The solution was prepared one day before dose administration; brecanavir was formulated in an aqueous 30% (w/v) DMA/50% (w/v) PEG400 solution at 35 mg/ml. The ingredients of the solution were: brecanavir, DMA 30% (w/v), PEG 400 50% (w/v) and pyrogenic free water. The content of brecanavir in the formulation was checked using LC-UV. The concentration of brecanavir in the formulation was 35 mg/ml.
# Blood samples (0.3 ml on EDTA) were collected from the rats via the tail vein at 1, 2, 4, 7 and 24 h and further at 3, 4, 8, 14, 29, 42 and 56 days after dosing. Plasma samples were analyzed for brecanavir with a qualified research method on LC/MS/MS. Plasma concentrations were plotted as a function of time after dosing (FIG. 2). Pharmacokinetic parameters were calculated using WinNonlin software. Subcutaneous injection of an aqueous solution of brecanavir in rats produced an extended release pharmacokinetic profile with duration of at least 8 weeks (FIG. 2).
# [3] = system: wild type HIV as well as mutated variants; conditions: in words; cited from earlier work
# [4] = in vivo, po; cited from earlier work
# [5] = individual rats, i.v. solution, 2 mg/kg
# [6] = mean of n=3 rats, i.v. solution, 2 mg/kg
# [7] = 2 mg/kg, mean of n=3 rats, i.v. solution
# [8] = individual rats, single s.c. solution, 16 mg/kg
# [9] = individual rats, single s.c. solution, 56 mg/kg
smiles,measurement,setting,value
"Cc1nc(COc2ccc(C[C@H](NC(=O)O[C@H]3CO[C@H]4OCC[C@H]43)[C@H](O)CN(CC(C)C)S(=O)(=O)c3ccc4c(c3)OCO4)cc2)cs1 [brecanavir, [(3R,3aS,6aR)-2,3,3a,4,5,6a-hexahydro-furo[5,4-b]furan-3-yl] N-[(2S,3R)-4-(1,3-benzodioxol-5-ylsulfonyl-(2-methylpropyl)-amino)-3-hydroxy-1-[4-[(2-methyl-1,3-thiazol-4-yl)methoxy]phenyl]butan-2-yl]-carbamate]",AUClast,"[1]; individual rats, i.v. solution (PEG400/saline 70:30, 1 mg/ml), 2 mg/kg",1066 ng·h/mL and 1149 ng·h/mL
same,Cl,[1]; [5],30 mL/min/kg and 28.3 mL/min/kg
same,Vc,[1]; [5],0.70 L/kg and 0.46 L/kg and 0.52 L/kg
same,t1/2β,[1]; [5],2.3 h and 1.5 h (2×)
same,Vc,[1]; [6],0.56 L/kg
same,t1/2β,[1]; [6],1.8 h
same,clearance,"[1]; 2 mg/kg, individual rats, i.v. solution",23.3 mL/min/kg
same,AUC(0-t),"[1]; 2 mg/kg, individual rats, i.v. solution (PEG400/saline 70:30, 1 mg/ml), 2 mg/kg",1370 ng·h/mL
same,AUC(0-t),[1]; [7],1200 ng·h/mL
same,clearance,[1]; [7],28.3 mL/min/kg
same,distribution volume,"[1]; rats, i.v. injection, in words",moderate to small distribution volume
same,plasma clearance,"[1]; rats, i.v. injection, in words",moderate plasma clearance
same,AUC(0-t),"[2]; Sprague-Dawley (Crl:CD(SD)IGS), rat, plasma, sc, 16 mg/kg, individual rats, single s.c. solution, 16 mg/kg",6500 ng·h/mL
same,AUC(0-t),"[2]; Sprague-Dawley (Crl:CD(SD)IGS), rat, plasma, sc, 16 mg/kg, mean of n=4 rats, single s.c. solution, 16 mg/kg",8720 ng·h/mL
same,Cmax,"[2]; Sprague-Dawley (Crl:CD(SD)IGS), rat, plasma, sc, 16 mg/kg, mean of n=4 rats, single s.c. solution, 16 mg/kg, read-out: Cmax",369 ng/mL
same,AUC(0-t),"[2]; Sprague-Dawley (Crl:CD(SD)IGS), rat, plasma, sc, 56 mg/kg, individual rats, single s.c. solution, 56 mg/kg",29900 ng·h/mL
same,AUC(0-t),"[2]; Sprague-Dawley (Crl:CD(SD)IGS), rat, plasma, sc, 56 mg/kg, mean of n=4 rats, single s.c. solution, 56 mg/kg",21700 ng·h/mL
same,Cmax,"[2]; Sprague-Dawley (Crl:CD(SD)IGS), rat, plasma, sc, 56 mg/kg, mean of n=4 rats, single s.c. solution, 56 mg/kg, read-out: Cmax",322 ng/mL
same,bioavailability,"[2]; Sprague-Dawley (Crl:CD(SD)IGS), rat, plasma, sc, rats, 16 mg/kg",91%
same,bioavailability,"[2]; Sprague-Dawley (Crl:CD(SD)IGS), rat, plasma, sc, rats, 56 mg/kg",66%
same,Cmax,"[2]; individual rats, single s.c. solution (30% DMA/50% PEG400, 35 mg/ml), 16 mg/kg",273 ng/mL and 289 ng/mL and 591 ng/mL and 234 ng/mL
same,AUClast,[2]; [8],9630 ng·h/mL and 9291 ng·h/mL and 9448 ng·h/mL
same,t1/2λz,[2]; [8],10.9 days and 5.58 days and 22.3 days and 17 days
same,AUClast,[2]; [9],17602 ng·h/mL and 24284 ng·h/mL and 15221 ng·h/mL
same,Cmax,[2]; [9],360 ng/mL and 204 ng/mL and 417 ng/mL and 305 ng/mL
same,t1/2λz,[2]; [9],53 days and 16.2 days and 19.2 days and 44.67 days
same,t1/2λz,"[2]; mean of n=4 rats, single s.c. solution, 16 mg/kg",14 days
same,t1/2λz,"[2]; mean of n=4 rats, single s.c. solution, 56 mg/kg",33.2 days
same,duration of extended release pharmacokinetic profile,"[2]; rats, s.c. aqueous solution",at least 8 weeks
same,absorption into the systemic circulation,"[2]; rats, s.c. injection of a high dose solution, in words",very slow absorption
same,activity against wild type HIV and mutated variants,[3],pronounced activity
same,brecanavir exposures,[4],insufficient to inhibit PI-resistant virus
